Assay results reported in patent EP0277849A1, “Incorporation of one or more lipophilic, active principles into lipoproteins, lipoproteins obtained and pharmaceutical compositions containing them” (IRE-CELLTARG S.A., priority 1987, dated 1988).
Where two headings read alike, the source gives them in different places.

Key:
[1] = Incorporation of cytotoxic agent into LDL with submicellar NaDOC; type: physicochemical
Experimental: Les LDL isolées sur sépharose CL-4B sont dialysées pendant 24 heures à 4° C contre un tampon C.
L'agent thérapeutique est solubilisé dans un solvant organique à raison de 1 mg par ml. 100 µL de cette solution sont évaporés sous Argon dans un tube à essai. On ajoute au résidu sec, 2 ml de la solution de LDL et du NaDOC de façon à atteindre une concentration finale de 1 à 5 mM selon l'agent thérapeutique considéré. […]
Au terme de l'incubation, l'échantillon est filtré sur un filtre Millipore 0,45 µm. Le NaDOC est ensuite éliminé par chromatographie sur gel P6 (Biorard®) préalablement équilibré avec un tampon C.
La concentration en ApoB et en agent thérapeutique est déterminée sur chaque fraction.Les fractions correspondant aux LDL sont mises en commun et dialysées contre un tampon τrisHCl 10 mM NaCI 0,15 M EDTA 0,3 mM pH 7,4 pendant 24 heures à 4°C.
L'ensemble du procédé décrit en IV-1 a été appliqué à un dérivé VINCA ALCALOIDE liposoluble : le "C91 base": (4-désacétyl-vinblastine C-3N-dodécyl-carboxamide). La concentration en NaDOC utilisée lors de l'incubation a été ajustée à 2 mM final.
Si on précipite sélectivement les LDL, plus de 99 % du C91 base se retrouve dans le culot. On confirme ainsi que l'agent thérapeutique est bien associé aux LDL. On appellera cette préparation : LDL-C91. […]

[2] = Incorporation of antifungal agent into LDL by NaDoc dissociation-reconstitution; type: physicochemical; details: 1,6 mg LDL, 482 µg of agent, dialysis
Experimental: On ajoute à 1,6 mg de LDL préalablement dialysées contre le tampon C, 10 mg de NaDoc solide et on laisse réagir 30 minutes à température ambiante. On ajoute à la préparation 2,8 ml d'une solution NaDoc 20 mM, Na2COs 50 mM, NaCi 50 mM, pH 10 contenant 482 µg de CT4000A ou 482 µg de CT040013. Les échantillons sont dialysés à 4° C contre trois fois 1 litre de tampon B.
Le pourcentage de récupération en LDL, en CT040013 et en NaDoc est déterminé au terme du processus de reconstitution (figure 13).
Il est également possible de rapporter la masse de substance incorporée par mole de LDL. Les résultats obtenus pour le CT04000A et la CT040013 sont respectivement de 0,4 et de 208 moles incorporés par mole de LDL.

Candida tropicalis = experiment: Intracellular infection model: J77468 macrophages infected with Candida tropicalis; type: cell-based; details: 2 % de sérum de veau foetal
Experimental: (§1) La lignée continue de macrophages J77468 d'origine murine provient d'un clonage de la souche J774 ATCC, et est cultivée en milieu RPMI 1640 additionné de glutamine 2 mM, 10% de sérum de veau foetal (décomplémenté 60 min. à 56°) et de 10 mM Hepes (pH 7.2). Une suspension de 5 10^6 cellules/ml sont infectées avec une culture de Candida tropicalis (5 10^5 levures/ml) provenant d'une culture de nuit dans de la casitone. Le milieu d'infection utilisé est du RPMI contenant 2 % de sérum de veau nouveau-né et 10 mM Hepes (pH 7.2).
(§2) Après 3 h d'incubation à 37° dans un mélange d'air 10 % C02, la phagocytose des levures est complète. La suspension cellulaire macrophages-Candida est centrifugée, lavée abondamment et répartie à raison de 10^5 macrophages infectés/alvéole dans des boîtes à 24 alvéoles contenant une lamelle de verre (diamètre 14 mm). Après 3 h de phagocytose (To), sur 100 macrophages, 32 contiennent de 1 à 6 Candida/macrophage, l'infection moyenne étant de 2 Candida/macrophage.
(§3) Toutes les levures ont été phagocytées sauf rares exceptions (estimation au microscope optique après coloration au May-Grünwald Giemsa). Douze concentrations différentes des drogues de référence et des drogues encapsulées dans les LDL sont distribuées dans les boîtes contenant les macrophages infectés.
(§4) L'évaluation de l'efficacité d'une drogue se fait à chaque concentration. Testées après 18 h d'incubation (37°, dans un mélange air-10 % C02), les levures se multiplient d'abord au sein des cellules hôtes, puis dans le milieu extracellulaire. Le taux de macrophages infectés est alors de 75 % chez les témoins. Une cellule peut contenir de 1 à plus de 20 Candida/cellule, la majorité contient de 2 à 6 levures/cellule. Le milieu de culture contient 10^8 Candida extracellulaires/ml (comptage dans une cellule de Burker).
L'activité d'une drogue encapsulée ou non dans les LDL ou Ac-LDL par rapport à un antifongique de référence, le kétoconazole (K), est déterminé par la concentration micromolaire en drogue réduisant de 50 % le nombre de macrophages infectés par les Candida (=C150). Signalons que parallèlement à la réduction au cours du traitement, du taux de cellules infectées, le nombre de Candida par macrophage infecté diminue fortement (de 1 à 3 levures/cellule).
Le milieu de culture est RPMI + glutamine 2 mM + Hepes 10 mM + 2 % de sérum de veau foetal.

macrophages J77468 = experiment: Toxicity for J77468 macrophages (MTT reduction); type: cell-based, murine; details: for % de viabilité cellulaire*: 18 h, MTT
Experimental: as §1
La viabilité des macrophages J77468 cultivés dans du milieu contenant l'agent antifongique encapsulé ou non dans les LDL figure au Tableau 5. K et K01 sont toxiques aux concentrations nécessaires pour réduire de 50 % l'infection intracellulaire (C1250) contrairement au LDL-K01 pour lequel aucune toxicité n'a pu être détectée.

C. tropicalis = experiment: Extracellular infection in the infected-macrophage model; type: cell-based; details: Candida tropicalis, read-out: CIext50^(a)
Experimental: as §1, §2, §3, §4
L'action des AF encapsulés sur une infection extracellulaire peut être évaluée de deux manières : d'une part en déterminant le nombre de Candida extracellulaires dans un modèle d'infection intracellulaire (voir VIII § 1.1.), d'autre part en mesurant la concentration minimale inhibitrice (CMI) de ces composés par la méthode de dilutions successives dans des boîtes à multipuits (milieu RPMI).

| Compound | nombre de molécules de drogue incorporées par molécule de LDL ([1]; 2 mM en NaDOC, temps d'incubation de 60 heures (3 heures à 25° C + 57 heures à 4°C)) | part retrouvée dans le culot après précipitation sélective des LDL ([1]; NaDOC 2 mM) [%] | moles incorporés par mole de LDL [2] | CI50 K/AF (Candida tropicalis) | IC50 (Candida tropicalis; Candida tropicalis, Macrophage, micromolar concentration reducing infected macrophages by 50 %, 18 h, read-out: CI50 (the source's name)) [nM] | toxicité aux concentrations nécessaires pour réduire de 50 % l'infection intracellulaire (macrophages J77468) | % de viabilité cellulaire* (macrophages J77468; Concentration 0,78 µM) | % de viabilité cellulaire* (macrophages J77468; Concentration 1,56 µM) | % de viabilité cellulaire* (macrophages J77468; Concentration 3,13 µM) | % de viabilité cellulaire* (macrophages J77468; Concentration 6,25 µM) | % de viabilité cellulaire* (macrophages J77468; Concentration 12,50 µM) | % de viabilité cellulaire* (macrophages J77468; Concentration 25,00 µM) | % de viabilité cellulaire* (macrophages J77468; Concentration 50,00 µM) | % de viabilité cellulaire* (macrophages J77468; Concentration 100,00 µM, versus untreated control) | IC50 (C. tropicalis; addition de 2 % Pl.H. (plasma humain)) [nM] | IC50 (C. tropicalis; addition de 2 % SVF (sérum de veau foetal)) [nM] |
| --- | --- | --- | --- | --- | --- | --- | --- | --- | --- | --- | --- | --- | --- | --- | --- | --- |
| 4-désacétyl-vinblastine C-3N-dodécyl-carboxamide [C91 base] | 70 | > 99 | – | – | – | – | – | – | – | – | – | – | – | – | – | – |
| CC(=O)N1CCN(c2ccc(OC[C@H]3CO[C@](Cn4ccnc4)(c4ccc(Cl)cc4Cl)O3)cc2)CC1 [K, reference compound] | – | – | 0,4 moles incorporés par mole de LDL | 1 | 52300 | toxiques | 85,16% | 86,67% | 64,56% | 50,52% | 16,40% | 3,16% | 3,50% | 1,75% | 100 | 100 |
